Reference: the NIST ThermoML archive (doi:10.1021/acs.jced.8b01097)

Experiment: xn = mol fraction of the nth substance listed
Conditions: 85 kPa, Liquid; for viscosity: Concentric cylinders viscometry; for mass density: Vibrating tube method

CCC(C)O (centres undefined) [butan-2-ol] + CC(C)O
Conditions	mass density [kg/m3]	viscosity [mPa·s]
293.15 K, x1 = 0.0807	787.1	2.497
293.15 K, x1 = 0.1619	789.2	2.584
293.15 K, x1 = 0.2385	791	2.674
293.15 K, x1 = 0.3492	793.6	2.814
293.15 K, x1 = 0.4386	795.7	2.932
293.15 K, x1 = 0.56	798.3	3.097
293.15 K, x1 = 0.6489	800	3.221
293.15 K, x1 = 0.7402	801.8	3.352
293.15 K, x1 = 0.8494	803.7	3.511
293.15 K, x1 = 0.9403	805.3	3.648
293.15 K, x1 = 1	806.2	3.743
298.15 K, x1 = 0.0807	782.9	2.146
298.15 K, x1 = 0.1619	785	2.211
298.15 K, x1 = 0.2385	786.9	2.282
298.15 K, x1 = 0.3492	789.5	2.391
298.15 K, x1 = 0.4386	791.5	2.481
298.15 K, x1 = 0.56	794.1	2.607
298.15 K, x1 = 0.6489	795.9	2.702
298.15 K, x1 = 0.7402	797.6	2.801
298.15 K, x1 = 0.8494	799.6	2.923
298.15 K, x1 = 0.9403	801.1	3.028
298.15 K, x1 = 1	802	3.101
303.15 K, x1 = 0.0807	778.7	1.851
303.15 K, x1 = 0.1619	780.8	1.901
303.15 K, x1 = 0.2385	782.7	1.955
303.15 K, x1 = 0.3492	785.3	2.038
303.15 K, x1 = 0.4386	787.4	2.107
303.15 K, x1 = 0.56	790	2.204
303.15 K, x1 = 0.6489	791.8	2.276
303.15 K, x1 = 0.7402	793.5	2.352
303.15 K, x1 = 0.8494	795.5	2.444
303.15 K, x1 = 0.9403	797	2.524
303.15 K, x1 = 1	797.9	2.579
308.15 K, x1 = 0.0807	774.4	1.603
308.15 K, x1 = 0.1619	776.5	1.643
308.15 K, x1 = 0.2385	778.5	1.684
308.15 K, x1 = 0.3492	781.1	1.747
308.15 K, x1 = 0.4386	783.1	1.801
308.15 K, x1 = 0.56	785.7	1.876
308.15 K, x1 = 0.6489	787.5	1.932
308.15 K, x1 = 0.7402	789.3	1.991
308.15 K, x1 = 0.8494	791.2	2.062
308.15 K, x1 = 0.9403	792.7	2.121
308.15 K, x1 = 1	793.6	2.162
313.15 K, x1 = 0.0807	769.9	1.397
313.15 K, x1 = 0.1619	772.1	1.427
313.15 K, x1 = 0.2385	774	1.459
313.15 K, x1 = 0.3492	776.7	1.508
313.15 K, x1 = 0.4386	778.7	1.549
313.15 K, x1 = 0.56	781.3	1.608
313.15 K, x1 = 0.6489	783.1	1.652
313.15 K, x1 = 0.7402	784.9	1.697
313.15 K, x1 = 0.8494	786.8	1.751
313.15 K, x1 = 0.9403	788.4	1.798
313.15 K, x1 = 1	789.2	1.828
318.15 K, x1 = 0.0807	765.5	1.221
318.15 K, x1 = 0.1619	767.6	1.246
318.15 K, x1 = 0.2385	769.6	1.271
318.15 K, x1 = 0.3492	772.2	1.31
318.15 K, x1 = 0.4386	774.3	1.342
318.15 K, x1 = 0.56	776.9	1.388
318.15 K, x1 = 0.6489	778.7	1.422
318.15 K, x1 = 0.7402	780.4	1.457
318.15 K, x1 = 0.8494	782.4	1.5
318.15 K, x1 = 0.9403	783.9	1.536
318.15 K, x1 = 1	784.7	1.559
323.15 K, x1 = 0.0807	760.9	1.072
323.15 K, x1 = 0.1619	763.1	1.093
323.15 K, x1 = 0.2385	765	1.113
323.15 K, x1 = 0.3492	767.7	1.144
323.15 K, x1 = 0.4386	769.7	1.169
323.15 K, x1 = 0.56	772.4	1.205
323.15 K, x1 = 0.6489	774.2	1.231
323.15 K, x1 = 0.7402	775.9	1.258
323.15 K, x1 = 0.8494	777.9	1.291
323.15 K, x1 = 0.9403	779.4	1.318
323.15 K, x1 = 1	780.2	1.318
